According to patent US20040249133A1, “Use of lipopeptides or lipoproteins for treating lung infections and lung tumours” (priority 2000, published 2004):

Key:
[1] = test system: rats; assay: Repeated inhalation of MALP-2 by mask in rats; assay type: in vivo, rat; settings: 30 μg inhaled by mask, six occasions at one-week intervals
Method: 2) With the aid of a mask, rats are made to inhale 30 μg doses of MALP-2 on six occasions at one-week intervals.

[2] = test system: rats; assay: Intratracheal instillation of MALP-2 in rats, cells determined by bronchoalveolar lavage (BAL); settings: 3 μg instilled into the trachea
Method: 1) 3 μg of MALP-2 (an S-(2,3-bisacyloxypropyl)-cysteine peptide) are instilled into the trachea of rats. At various times after treatment, cells from the lung lumen are determined by means of bronchoalveolar lavage (BAL).

[3] = intraperitoneal injection of a few μg; cited from earlier work

Substance: MALP-2: macrophage-activating lipopeptide (an S-(2,3-bisacyloxypropyl)-cysteine peptide) isolated from Mycoplasma fermentans
- clinical condition of the animals [1]: clinically not noteworthy
- lymphatic tissue in the bronchial mucosa [1]: increase in the lymphatic tissue
- adverse effect on the animals [2]: not detectable
- duration of the increase in leukocyte number [2]: lasts for a few days
- food consumption, bodyweight, activity and behaviour [2]: not noteworthy
- number of leukocytes in the respiratory tracts and the alveolar space (BAL) ([2]; after a few hours): increase in the number of leukocytes
- leukocyte infiltration [3]: has brought about leukocyte infiltration
